# Key:
# [1] = Canine pharmacokinetics of enteric coated formulations at 0.15 mg/kg (T1) and 0.75 mg/kg (T5); type: in vivo; conditions: dogs, oral enteric coated formulation; for AUC(0-inf) / AUC(0-t) / Cmax / Tmax / half-life: dog, blood, po
# [2] = cited from earlier work
# healthy dogs = conditions: 0.05 or 0.1 mg/kg orally three times per week, 10 weeks; cited from earlier work
# [3] = typical gastric pH range; cited from earlier work
# [4] = Feline repeat dose toxicokinetic study of oral enteric-coated formulations; type: in vivo; conditions: whole blood, cats, oral enteric-coated formulation, Mean; for AUC(0-t): read-out: AUC0-72
# Protocol: This represents a first-in-species repeat dose test toxicokinetic study in cats. Pharmacokinetic sampling was performed after the first and last doses.
# [5] = 0.15 mg/kg, T1 0.15 mg/kg, Arith. Mean
# [6] = 0.15 mg/kg, T1 0.15 mg/kg, Median
# [7] = 0.75 mg/kg, T5 0.75 mg/kg, Arith. Mean
# [8] = 0.75 mg/kg, T5 0.75 mg/kg, Median
# [9] = 0.15 mg/kg, 0.15 mg/kg three times a week, Day 26, whole blood
# [10] = 0.15 mg/kg, 0.15 mg/kg, Day 0, whole blood
# [11] = 0.45 mg/kg, 0.45 mg/kg three times a week, Day 26, whole blood
# [12] = 0.45 mg/kg, 0.45 mg/kg, Day 0, whole blood
# [13] = 0.75 mg/kg, 0.75 mg/kg three times a week, Day 26, whole blood
# [14] = 0.75 mg/kg, 0.75 mg/kg, Day 0, whole blood
smiles,measurement,setting,value
CO[C@H]1C[C@@H]2CC[C@@H](C)[C@@](O)(O2)C(=O)C(=O)N2CCCC[C@H]2C(=O)O[C@H]([C@H](C)C[C@@H]2CC[C@@H](O)[C@H](OC)C2)CC(=O)[C@H](C)/C=C(\C)[C@@H](O)[C@@H](OC)C(=O)[C@H](C)C[C@H](C)/C=C/C=C/C=C/1C [rapamycin],AUC(0-inf),[1]; [5],42.7 ng·h/mL
same,AUC(0-t),[1]; [5],40.8 ng·h/mL
same,Cmax,[1]; [5],2.23 ng/mL
same,Tmax,[1]; [5],1.83 h
same,half-life,[1]; [5],16.4 h
same,AUC(0-inf),[1]; [6],38.5 ng·h/mL
same,AUC(0-t),[1]; [6],45.2 ng·h/mL
same,Cmax,[1]; [6],2.17 ng/mL
same,Tmax,[1]; [6],2 h
same,half-life,[1]; [6],13.6 h
same,AUC(0-inf),[1]; [7],102 ng·h/mL
same,AUC(0-t),[1]; [7],111 ng·h/mL
same,Cmax,[1]; [7],4.41 ng/mL
same,Tmax,[1]; [7],2.17 h
same,half-life,[1]; [7],20.2 h
same,AUC(0-inf),[1]; [8],98.4 ng·h/mL
same,AUC(0-t),[1]; [8],96.9 ng·h/mL
same,Cmax,[1]; [8],3.14 ng/mL
same,Tmax,[1]; [8],2 h
same,half-life,[1]; [8],20.5 h
same,kelim,"[1]; T1 0.15 mg/kg, Arith. Mean",0.0596 h⁻¹
same,kelim,"[1]; T1 0.15 mg/kg, Median",0.0627 h⁻¹
same,kelim,"[1]; T5 0.75 mg/kg, Arith. Mean",0.0357 h⁻¹
same,kelim,"[1]; T5 0.75 mg/kg, Median",0.0338 h⁻¹
same,solubility in water,[2],poorly soluble in water
same,clinical side effects and hematological changes,healthy dogs,did not cause significant clinical side effects or abnormal hematological changes
same,acid stability,[3],rapidly degrades within the typical gastric pH range
same,Cmax,[4]; [9],2.26 ng/mL
same,AUC(0-t),[4]; [9],54 ng·h/mL
same,Cmax,[4]; [10],2.85 ng/mL
same,Tmax,[4]; [10],4 h
same,AUC(0-t),[4]; [10],41 ng·h/mL
same,Cmax,[4]; [11],6.98 ng/mL
same,Tmax,[4]; [11],2 h
same,AUC(0-t),[4]; [11],182 ng·h/mL
same,Cmax,[4]; [12],4.4 ng/mL
same,AUC(0-t),[4]; [12],99.5 ng·h/mL
same,Cmax,[4]; [13],8.07 ng/mL
same,Tmax,[4]; [13],2 h
same,AUC(0-t),[4]; [13],248 ng·h/mL
same,Cmax,[4]; [14],7.56 ng/mL
same,Tmax,[4]; [14],2 h
same,AUC(0-t),[4]; [14],135 ng·h/mL

# Reference: patent publication US12599590B2 (TriviumVet DAC, priority 2019, dated 2026)
